# Tests used:
# [1] = system: ovariectomized, hypoestrogenic rats; details: introduction into the lateral ventricle in the brain; cited from earlier work
# [2] = system: patients with dementia; details: patients in the treatment of Alzheimer's disease; cited from earlier work
# [3] = system: male rats exposed to chronic stress (electrical current); assay: Sexual activity of male rats in the model of chronic stress caused by electrical current exposure; assay type: in vivo, rat
# Method: The most appropriate model (in terms of the ease of implementation) is the model of psychogenic sexual dysfunction caused by exposure to physical factors (electrical current) in rats.
# The pre-experiment with the animals was performed similar to that described in Example 2.
# The two groups of the animals similar in the sexual activity level were formed: control (administration of distilled water), pharmaceutical formulation (on ipidacrine basis at a dose of 1.7 mg/kg). The animals of the control and experimental groups were daily exposed to current with a voltage of 30V for 30 min once a minute with an impulse with duration of 1 sec. The drug was administered 30 minutes before the stress, the testing was performed 60 min after the stress.
# [4] = system: hypoactive male rats with spontaneously reduced sexual function; assay: Sexual activity of initially hypoactive male rats with spontaneously reduced sexual function; assay type: in vivo, rat
# Description: This model is associated with the clinical conditions of anorgasmia or delayed ejaculation in humans. According to the results of the five-fold testing of the intact animals, the groups of hypoactive male rats were formed. The criterion for selection was average number of ejaculations of less than 0.5 according to the results of the five-fold testing.
# To assess the effect of ipidacrine on sexual function of rats with the reduced sexual activity, the groups of the animals with initially low manifestations of copulatory and ejaculatory components of behavior were formed. This model reflects the clinical conditions of anorgasmia and delayed ejaculation. The effect of the drug on the integral indicator of the sexual function (number of ejaculations) at a dose of 0.85 to 5.1 mg/kg when administered daily is shown in FIG. 3
# [5] = system: hemigonadectomized rats; assay: Sexual activity of hemigonadectomized rats (hypogonadal state model); assay type: in vivo, rat
# Description: Evaluation of the effects of ipidacrine pharmaceutical formulation in rats with the reduced sexual activity caused by hemigonadectomy. The hemigonadectomy is similar to the pathological processes observed in the clinical picture and associated with the decrease in hormone production by the sex glands. The model of hypogonadal state in rats induced by the hemigonadectomy corresponds to the pathological processes observed in the clinical picture and associated with the decreased hormone production of the sex glands.
# The study of the ipidacrine pharmacological activity was conducted in albino male rats. The following six groups of animals were formed: 1—intact, 2—treated with sildenafil, 3—galantamine, 4—ipidacrine, 5—gonadectomized, 6—control.
# 30 days before the start of the main study, the experiment was performed (3 times a week for 2 weeks), namely introduction of a receptive female to the male rat. The number of ejaculations was recorded. Those animals whose level of sexual activity was characterized by stable performance of 1-2 ejaculations during the period of the test were selected.
# The selected male rats underwent the hemigonadectomy (at the right) performed under ether anesthesia. Then, during 7 and 14 days prior to the course administration of the drugs, daily testing of sexual activity of the hemigonadectomized animals was carried out. The latency period and the number of mounts, intromissions and ejaculations in different groups of the animals were considered.
compound,measurement,setting,value
CNC(=O)Oc1ccc2c(c1)[C@]1(C)CCN(C)[C@@H]1N2C [eserine],lordosis,[1],increases the lordosis
COc1cc2c(cc1OC)C(=O)C(CC1CCN(Cc3ccccc3)CC1)C2 (stereo not shown) [donepezil],sexual behavior (side effect),[2],increase in the sexual behavior
"Nc1c2c(nc3c1CCC3)CCCC2 [ipidacrine, Ipidacrine]",formation of sexual dysfunction,[3]; 1.7 mg/kg once a day prior to the stress,slower formation of sexual dysfunction
same,parameters of activity in the initial period,"[3]; 1.7 mg/kg, 1 to 3 days, versus group nonsusceptible to stress",comparable to the parameters in the group nonsusceptible to the stress
same,frequency of ejaculations,"[3]; 1.7 mg/kg, 3rd to 10th day of the experiment",60-100%
same,rate of renewal of activity after the first ejaculation,"[3]; 1.7 mg/kg, 3rd to 10th day, versus stressed animals without treatment",higher rate of renewal of activity after the first ejaculation
same,latency period of intromissions (7th day) and of intromissions and mounts (10th day) versus group without treatment,"[3]; 1.7 mg/kg, 7th and 10th day",Significant differences from the group without treatment
same,number of ejaculations,"[3]; 1.7 mg/kg, 10th and 14th day of the 14 day exposure to stress",0.4-0.6
same,latency period of mounts and intromissions compared to animals nonsusceptible to stress,"[3]; 1.7 mg/kg, starting from the 5th day",significant increase in the latency period of mounts and intromissions
same,average number of ejaculations in the group,[4]; 0.85 mg/kg daily,0.6-0.8
same,rate of occurrence of ejaculations,[4]; 0.85 mg/kg daily,80%
same,latency period of mounts and intromissions,"[4]; 0.85 mg/kg daily, 7th to 14th day, versus background, trend level, similar changes in control",reduction of the latency period of mounts and intromissions
same,time to renewal of sexual activity after the first ejaculation (on the average),"[4]; 0.85 mg/kg daily, some animals",4 to 6 min
same,sexual activity,"[4]; 0.85 mg/kg daily, starting with the 2nd week",increase in the sexual activity
same,number of animals able to ejaculate,[4]; 1.7 mg/kg,up to 80%
same,effect on the sexual function,"[4]; 1.7 mg/kg, 14 days",activating effect on the sexual function throughout the whole observation period
same,reduction in the latency time of mounts and intromissions,"[4]; 1.7 mg/kg, after the first administration",2 to 4 fold
same,ejaculatory component,"[4]; 1.7 mg/kg, throughout the course of administration",increase of the ejaculatory component in comparison with the control
same,efficacy in spontaneous sexual hypoactivity,[4]; 5.1 mg/kg,effective only when administered for 5 days
same,manifestation of the sexual activity on subsequent administration,"[4]; 5.1 mg/kg, after the first 5 days",negative effect on the manifestation of the sexual activity
same,sexual activity (central motivational and ejaculatory components),"[4]; 5.1 mg/kg, first 5 days",increased the sexual activity in the animals during the first 5 days of observation
same,values of indicators of sexual activity,"[4]; 5.1 mg/kg, in 10, 14 days of the experiment",comparable to the control
same,latency period of mounts,"[4]; 5.1 mg/kg, in 3 days of observation, reduced from 33.0±5.35, p<0.05",9.3 ± 1.93 s
same,latency period of intromissions,"[4]; 5.1 mg/kg, in 3 days of observation, reduced from 59.8 ±11.34, p<0.05",10.5 ±1.76
same,level of the sexual activity (fluctuations due to external stressor effects),"[5]; 1.7 mg/kg once daily for 7 days, hemigonadectomized rats",eliminates fluctuations in the level of the sexual activity
same,time of maximum manifestation of the increase in sexual activity,"[5]; 5.1 mg/kg, 2 times a day for 14 days",3 to 5 days
same,time of maximum manifestation of the increase in sexual activity,"[5]; 0.85 to 1.7 mg/kg, 2 times a day for 14 days",11 to 14 days
same,sexual activity of the animals,"[5]; 0.85 to 5.1 mg/kg, 2 times a day for 14 days, hemigonadectomized rats",dose-dependent increase in the sexual activity
